How the values were obtained:
[1] = oral pharmacokinetic test; type: in vivo, ICR mice; conditions: ICR, mouse, plasma, 10 mg/kg, 10 mg/Kg PO, vehicle A (NMP:PEG400=5:95)
Experimental: (§1) To evaluate the pharmacokinetic properties in vivo, oral pharmacokinetic test was performed with the compounds of Comparative Examples 1 and 4 and Examples 1 and 4 using mice and rats, and the PK parameters are shown in Table 10.
(§2) ICR mice (6-7 weeks old) and SD rats (6-7 weeks old) were used for the test. The fasted group was fasted about 16 hours before oral administration, and the fed group was fasted about 4 hours before oral administration. The test drug for oral administration was used by dissolving the drug in a vehicle at a concentration of 1 mg/mL for use, and blood samples were collected (time point: 0.25, 0.5, 1, 2, 4, 8, 12, 24, 32, n=3) from the heart (mouse, 500 μL/time point) or jugular vein (rat, 120 μL/time point). Blood was centrifuged at 12,000 G at 4° C. for 2 minutes to separate plasma, and stored at −80° C. until analysis. • Vehicle A (NMP:PEG400=5:95) • Vehicle B (0.5% methyl cellulose) 6-2. Sampling and Pretreatment
(§3) To 20 μl of plasma, 180 μl of acetonitrile (including internal standard) was added. The mixture was vortexed and centrifuged for 5 minutes at 15,000 rpm at 4° C. The supernatant obtained after centrifugation was analyzed by LC-MS/MS.
(§4) PK parameters were calculated with a non-compartmental analysis model using Phoenix WinNonlin 6.4 version (Pharsight, USA) program.

[2] = oral pharmacokinetic test; type: in vivo, SD rats; conditions: SD, plasma; rat, 10 mg/Kg PO, vehicle A (NMP:PEG400=5:95)
Experimental: as §1, §2, §3, §4

KOPM28 cells = assay: human CML cell proliferation inhibition; type: cell-based; conditions: 72 hours, Cell Counting Kit-8
Method in brief: (§5)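 Bcr-Abl TCCS and KOPM28 cells, plus their T315I-Bcr-Abl counterparts, are treated with compound (final 0–10 μM, 5-fold steps) for 72 h at 37 °C. Viability is measured by CCK-8 at 450 nm, and GI50 is computed as percent of DMSO control.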

T315I-TCCS cells = assay: human CML cell proliferation inhibition; type: cell-based; conditions: 72 hours, Cell Counting Kit-8
Method in brief: as §5

T315I-KOPM28 cells = assay: human CML cell proliferation inhibition; type: cell-based; conditions: 72 hours, Cell Counting Kit-8
Method in brief: as §5

TCCS cells = assay: human CML cell proliferation inhibition; type: cell-based; conditions: 72 hours, Cell Counting Kit-8
Method in brief: as §5

Parental (Ba/F3) = assay: Ba/F3 cell proliferation inhibition; type: cell-based; conditions: BaF3; 72 hours, Cell Counting Kit-8
Method in brief: (§6)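 Parental and T315I-Bcr-Abl Ba/F3 cells, 1×10^4 per well, exposed 72 h at 37 °C to nine 3-fold dilutions, final 0 to 10 μM. Viability by CCK-8 after 2 h, absorbance 450 nm; GI50 fitted from percent of vehicle-treated cells.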

T315I-Bcr-Abl (Ba/F3) = assay: Ba/F3 cell proliferation inhibition; type: cell-based; conditions: BaF3; 72 hours, Cell Counting Kit-8
Method in brief: as §6

[3] = body weight in blood cancer mouse model; type: in vivo, nude mice; conditions: 25 mg/kg oral once a day for 10 days
Experimental: (§7) A total of 50 male 5-week-old nude mice (14-17 g) were obtained from Orient Bio Inc. (322, Galmachi-ro, Jungwon-gu, Seongnam-si, Gyeonggi-do, Korea). After the mice were adapted to an animal facility for 1 week, the Luc_Ba/F3 T315I-Bcr-Abl cell line emitting luciferase was transplanted into the caudal vein at the density of 5×10^6/animal. Group separation was performed 3 days after the cell line transplantation. On the day of the group separation, 10 mice were randomly assigned to each group of 5 groups so that the luminescence values were equal after luminescence measurement using IVIS spectrum-CT optical imaging equipment.
5 groups: control (vehicle, 0.5% methylcellulose solution), ponatinib (25 mg/kg), Example 1 (25 mg/kg), Example 1 (50 mg/kg), Example 1 (100 mg/kg).
After the group separation, the compound of Example 1, ponatinib, and a vehicle were orally administered at intervals of once a day for 10 days in order to evaluate the therapeutic efficacy of the drug. The drug effect was confirmed through optical imaging, and the confirmation was carried out before the drug administration (day 0) and on days 4, 11, 18 and 21 after the administration. In addition, the body weight and survival rate of each experimental group were monitored.

[4] = tested on: Luc_Ba/F3 T315I-Bcr-Abl cell line; assay: in vivo pharmacological activity, blood cancer mouse model; parameters: species or system nude mice; conditions: 25 mg/kg oral once a day for 10 days; vehicle group: day 21
Experimental: as §7, with “After” for “A total of 50 male 5-week-old nude mice (14-17 g) were obtained from Orient Bio Inc. (322, Galmachi-ro, Jungwon-gu, Seongnam-si, Gyeonggi-do, Korea). After”
In addition, the body weight and survival rate of each experimental group were monitored.
Statistical analysis was performed using GraphPad Prism 8, and the statistical significance of the survival rate was confirmed using unpaired t test and log-rank (Mantel-Cox) test.

Work on `Cc1cn(-c2cc(NC(=O)c3ccc(C)c(C#Cc4cnc5c(Nc6cnn(C)c6)cccn45)c3)cc(C(F)(F)F)c2)cn1` [Comparative Example 1, 4-methyl-N-(3-(4-methyl-1H-imidazol-1-yl)-5-(trifluoromethyl)phenyl)-3-((8-((1-methyl-1H-pyrazol-4-yl)amino)imidazo[1,2-a]pyridin-3-yl)ethynyl)benzamide, reference compound] yielded an AUC(0-t) [1] of 7730 ng·h/mL, a Cmax [1] of 810 ng/mL and a half-life [1] of 3.5 h.
In the case of `Cc1cn(-c2cc(NC(=O)c3ccc(C)c(C#Cc4cnc5c(Nc6cnn(C)c6)cccn45)c3)cc(C(C)(C)C#N)c2)cn1` [Comparative Example 4, N-(3-(2-cyanopropan-2-yl)-5-(4-methyl-1H-imidazol-1-yl)phenyl)-4-methyl-3-((8-((1-methyl-1H-pyrazol-4-yl)amino)imidazo[1,2-a]pyridin-3-yl)ethynyl)benzamide, reference compound], the AUC(0-t) [2] is reported as 2960 ng·h/mL, the Cmax [2] is reported as 169 ng/mL and the AUC(0-t) [1] is reported as 12600 ng·h/mL. For the same compound, the Cmax [1] was 3840 ng/mL and the half-life [1] was 3.3 h.
For `Cc1cc(F)c(C(=O)Nc2ccc(CN3CCN(S(C)(=O)=O)CC3)c(C(F)(F)F)c2)cc1C#Cc1cnc2c(Nc3cn[nH]c3)cccn12` [Example 113, 5-((8-((1H-pyrazol-4-yl)amino)imidazo[1,2-a]pyridin-3-yl)ethynyl)-2-fluoro-4-methyl-N-(4-((4-(methylsulfonyl)piperazin-1-yl)methyl)-3-(trifluoromethyl)phenyl)benzamide], the GI50 (KOPM28 cells) was < 10 nM, the GI50 (T315I-TCCS cells) was > 100 nM and the GI50 (T315I-KOPM28 cells) was > 100 nM. For the same compound, the GI50 (TCCS cells) was < 10 nM, the GI50 (Parental (Ba/F3)) was > 5000 nM and the GI50 (T315I-Bcr-Abl (Ba/F3)) was 500 to 5000 nM.
For `Cc1cc(F)c(C(=O)Nc2ccc(Cn3cncn3)c(C(F)(F)F)c2)cc1C#Cc1cnc2c(Nc3cn[nH]c3)cccn12` [Example 114, N-(4-((1H-1,2,4-triazol-1-yl)methyl)-3-(trifluoromethyl)phenyl)-5-((8-((1H-pyrazol-4-yl)amino)imidazo[1,2-a]pyridin-3-yl)ethynyl)-2-fluoro-4-methylbenzamide], the GI50 (KOPM28 cells) was < 10 nM, the GI50 (T315I-TCCS cells) was > 100 nM and the GI50 (T315I-KOPM28 cells) was > 100 nM. For the same compound, the GI50 (TCCS cells) was < 10 nM, the GI50 (Parental (Ba/F3)) was > 5000 nM and the GI50 (T315I-Bcr-Abl (Ba/F3)) was 50 to 500 nM.
In the case of `Cc1ccc(C(=O)Nc2ccc(CN3CCN(C)CC3)c(C(F)(F)F)c2)cc1C#Cc1cnc2cccnn12` [ponatinib, reference compound], the “body weight change during the experimental period (FIG. 4)” value [3] is reported as “no significant body weight change” and the “day after the administration on which all subjects died (FIG. 3)” value [4] is reported as 35 days.
